We go through 24 molecules from patent US12570666B2, “Furoindazole derivatives” (Bayer Aktiengesellschaft, priority 2019, dated 2026).

One may read the IC50 as the concentration needed to halve the response being measured.

For the experiment, the target named is T1, human GPR84 receptor (Homo sapiens, UniProt Q9NQS5).
T1 construct: frozen aliquots prepared by acCELLerate; host or cells: CHO-K1
T1 sequence (Q9NQS5 whole entry): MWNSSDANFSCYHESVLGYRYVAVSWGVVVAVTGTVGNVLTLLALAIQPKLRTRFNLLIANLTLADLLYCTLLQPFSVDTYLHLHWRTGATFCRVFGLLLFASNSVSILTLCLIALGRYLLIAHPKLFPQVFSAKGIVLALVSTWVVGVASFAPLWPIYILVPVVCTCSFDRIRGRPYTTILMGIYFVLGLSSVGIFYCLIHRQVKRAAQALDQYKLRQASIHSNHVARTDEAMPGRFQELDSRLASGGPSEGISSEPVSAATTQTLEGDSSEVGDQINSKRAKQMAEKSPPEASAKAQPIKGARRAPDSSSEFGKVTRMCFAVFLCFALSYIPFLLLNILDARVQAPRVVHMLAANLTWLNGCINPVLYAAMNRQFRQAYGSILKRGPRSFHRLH
Kind of experiment: cAMP HTRF assay for identification of cellular GPR84 antagonists. The class given is cell-based. As to conditions: CHO-K1 cells stably expressing human GPR84; Forskolin + agonist 6-OAU (EC80); average or median values. An excerpt:
cAMP HTRF® Assay for Identification of Cellular GPR84 Antagonists
By using a Homogenous Time-Resolved Fluorescence (HTRF®) based assay (#62AM5PEJ, Cisbio, Condolet, France) the inhibition of the Gi-coupled GPR84 receptor can be detected. CHO-K1 cells stably expressing human GPR84 receptor (purchased from DiscoveRx, now Eurofins) were used and treated with Forskolin (F6886, Sigma, Germany) to stimulate membrane adenylyl cyclases and thereby unspecific cAMP formation. Activation of the Gi-coupled GPR84 by a natural or small molecule agonist (e.g. 6-n-octyl aminouracile, inhouse) results in inhibition of cellular cAMP formation which can be released again by antagonists to this receptor. Detection and quantification of cellular cAMP levels in this HTRF assay is achieved by interaction between a fluorescent cAMP tracer (cAMP-d2) and an Eu-cryptate labelled anti-cAMP antibody. Following excitation at 337 nm this pairing allows for the generation of a fluorescence resonance energy transfer (FRET) between the partners and results in FRET induced emissions at 665 nm and 620 nm, the latter representing background signal by Eu-cryptate labelled anti-cAMP antibody. Maximal signal is obtained in the absence of any cellular cAMP (no competition for the binding of the tracer to the antibody). Given the combination of the Gi coupling properties of GPR84 and the competitive nature of the detection system agonist treatment should result in an increase in the HTRF signal due to lowered cAMP levels. Any signal decrease in the presence of Forskolin, agonist and compound is indicative of antagonist mediated abrogation of GPR84 signalling.
For the assay, frozen aliquots of CHO-K1 cells expressing hGPR84 (prepared by acCELLerate, Hamburg, Germany) were thawed and a cell suspension (1.67E+06 cells/mL) in assay media (Ham's F12 Nutrient Mix, Thermo Fisher Scientific, Waltham, USA; 5% fetal calf serum, Biomol, Hamburg, Germany) containing cAMP-d2 (dilution 1:20, supplied with the kit #62AM5PEJ, Cisbio, Condolet, France) was prepared. After recovery of cells for 20 minutes at 37° C., 3 μL/well cell suspension including cAMP-d2 were added to a pre-dispensed assay plate (Greiner Bio-One, Kremsmuenster, Austria) containing 50 nl/well test compound in 100% DMSO or 100% DMSO as control. This was followed by a 30 minutes incubation step at room temperature. […] The reaction was stopped by addition of 3 μL/well lysis buffer containing cAMP Eu-Cryptate antibody (dilution 1:20) (both supplied with the kit #62AM5PEJ, Cisbio, Condolet, France). To enable complete lysis, plates were incubated for 60 minutes at room temperature before measurement in an HTRF reader, e.g. a PHERAstar (BMG Labtech, Ortenberg, Germany).
From the fluorescence emissions at 665 nm (FRET) and at 620 nm (background signal of Eu-cryptate) the ratio (emission at 665 nm divided by emission at 620 nm×10000) was calculated and the data were normalized (reaction without test compound, only 100% DMSO=0% inhibition; all other assay components except agonist=100% inhibition). For dose response testing on the same microtiter plate, compounds were tested at 11 different concentrations in the range of 20 μM to 0.07 nM (20 μM, 5.7 μM, 1.6 μM, 0.47 μM, 0.13 μM, 38 nM, 11 nM, 3.1 nM, 0.89 nM, 0.25 and 0.07 nM; dilution series prepared before the assay at the level of the 100-fold conc. stock solutions by serial 1:3.5 dilutions in 100% DMSO) in duplicate values for each concentration. IC50 values were calculated by 4-parameter fitting using a commercial software package (Genedata Screener, Basel, Switzerland).
Examples were tested in selected biological assays one or more times. […]
A general note: In TR-FRET formats the signal depends on donor and acceptor labels being close together.
Turning to `Cc1c(C(=O)NC[C@@H]2CCCO2)oc2c1-c1nn(CC3COc4ncccc4O3)cc1CC2` (mixture of isomers) [Example 52, 2-[(2R/S)-2,3-dihydro[1,4]dioxino[2,3-b]pyridin-2-ylmethyl]-8-methyl-N-[(2S)-tetrahydrofuran-2-ylmethyl]-4,5-dihydro-2H-furo[2,3-g]indazole-7-carboxamide], the IC50 was 42 nM. Next, `Cc1c(C(=O)NCC2CC(C)CO2)oc2c1-c1nn(Cc3ccccn3)cc1CC2` (mixture of isomers) [Example 175]: 61 nM. With `Cc1c(C(=O)NCC2CCC(C)O2)oc2c1-c1nn(Cc3ccccn3)cc1CC2` (mixture of isomers) [Example 176], the IC50 was 118 nM. Next, `Cc1c(C(=O)NC[C@@H]2CCCO2)oc2c1-c1nn(CC3CCCCO3)cc1CC2` (mixture of isomers) [Example 190]: 238 nM. Next, `Cc1c(C(=O)NCC2CCC(C)(C)O2)oc2c1-c1nn(C[C@H]3COCCO3)cc1C1(CC1)C2` (mixture of isomers) [Example 195]: 29 nM; `Cc1c(C(=O)NCC2COCC(C)(C)O2)oc2c1-c1nn(C[C@H]3COCCO3)cc1C1(CC1)C2` (mixture of isomers) [Example 196]: 182 nM; `Cc1c(C(=O)NCC2CC(F)(F)CO2)oc2c1-c1nn(C[C@H]3COCCO3)cc1C1(CC1)C2` (mixture of isomers) [Example 197]: 98 nM. Next, `Cc1c(C(=O)NCC2CCC(C)O2)oc2c1-c1nn(C[C@H]3COCCO3)cc1C1(CC1)C2` (mixture of isomers) [Example 198]: 94 nM. Take `Cc1c(C(=O)NCC2CC(C)CO2)oc2c1-c1nn(C[C@H]3COCCO3)cc1C1(CC1)C2` (mixture of isomers) [Example 199]: the 50% inhibitory concentration (IC50) was 79 nM. Turning to `Cc1c(C(=O)NCC2CC3(CC3)CO2)oc2c1-c1nn(C[C@H]3COCCO3)cc1C1(CC1)C2` (mixture of isomers) [Example 200], the IC50 turned out to be 111 nM. Take `Cc1c(C(=O)NCC2CCC3(COC3)O2)oc2c1-c1nn(C[C@H]3COCCO3)cc1C1(CC1)C2` (mixture of isomers) [Example 201]: the IC50 was 80 nM. Take `O=C(NCC1CC(F)(F)CO1)c1oc2c(c1C(F)(F)F)-c1nn(C[C@H]3COCCO3)cc1CC2` (mixture of isomers) [Example 222, N-{[(2±)-4,4-difluorooxolan-2-yl]methyl}-2-{[(2S)-1,4-dioxan-2-yl]methyl}-8-(trifluoromethyl)-4,5-dihydro-2H-furo[2,3-g]indazole-7-carboxamide]: the IC50 turned out to be 20 nM.

Take `CC1(C)CCC(CNC(=O)c2oc3c(c2C(F)(F)F)-c2nn(C[C@H]4COCCO4)cc2CC3)O1` (mixture of isomers) [Example 223, N-{[(2±)-5,5-dimethyloxolan-2-yl]methyl}-2-{[(2S)-1,4-dioxan-2-yl]methyl}-8-(trifluoromethyl)-4,5-dihydro-2H-furo[2,3-g]indazole-7-carboxamide]: the half-maximal inhibitory concentration (IC50) is 23 nM.

Regarding `CC1CCC(CNC(=O)c2oc3c(c2C(F)(F)F)-c2nn(C[C@H]4COCCO4)cc2CC3)O1` (mixture of isomers) [Example 224, 2-{[(2S)-1,4-dioxan-2-yl]methyl}-N-{[(2±,5±)-5-methyloxolan-2-yl]methyl}-8-(trifluoromethyl)-4,5-dihydro-2H-furo[2,3-g]indazole-7-carboxamide], the IC50 is 18 nM.

Take `Cc1c(C(=O)NC[C@@H]2COCCO2)oc2c1-c1nn(Cc3ccccn3)cc1C(C)C2` (mixture of isomers) [Example 246, (4±)-N-{[(2R)-1,4-dioxan-2-yl]methyl}-4,8-dimethyl-2-[(pyridin-2-yl)methyl]-4,5-dihydro-2H-furo[2,3-g]indazole-7-carboxamide]: the IC50 was determined as 75 nM.

With `Cc1c(C(=O)NC[C@@H]2CCCO2)oc2c1-c1nn(Cc3ccccn3)cc1C(C)C2` (mixture of isomers) [Example 247, (4+)-4,8-dimethyl-N-{[(2S)-oxolan-2-yl]methyl}-2-[(pyridin-2-yl)methyl]-4,5-dihydro-2H-furo[2,3-g]indazole-7-carboxamide], the IC50 amounted to 66 nM. With `Cc1c(C(=O)NC[C@@H]2COCCO2)oc2c1-c1nn(C[C@H]3COCCO3)cc1C(C)C2` (mixture of isomers) [Example 248, (4±)-N-{[(2R)-1,4-dioxan-2-yl]methyl}-2-{[(2S)-1,4-dioxan-2-yl]methyl}-4,8-dimethyl-4,5-dihydro-2H-furo[2,3-g]indazole-7-carboxamide] the figure was 145 nM. In the case of `Cc1c(C(=O)NC[C@@H]2CCCO2)oc2c1-c1nn(C[C@H]3COCCO3)cc1C(C)C2` (mixture of isomers) [Example 249, (4±)-2-{[(2S)-1,4-dioxan-2-yl]methyl}-4,8-dimethyl-N-{[(2S)-oxolan-2-yllmethyl}-4,5-dihydro-2H-furo[2,3-g]indazole-7-carboxamide], the IC50 is 122 nM. With `CC1Cc2oc(C(=O)NC[C@@H]3COCCO3)c(C(F)(F)F)c2-c2nn(Cc3ccccn3)cc21` (mixture of isomers) [Example 250, (4±)-N-{[(2R)-1,4-dioxan-2-yl]methyl}-4-methyl-2-[(pyridin-2-yl)methyl]-8-(trifluoromethyl)-4,5-dihydro-2H-furo[2,3-g]indazole-7-carboxamide] the figure was 17 nM; with `Cc1ccc(Cn2cc3c(n2)-c2c(oc(C(=O)NC[C@@H]4CCCO4)c2C(F)(F)F)CC3C)nc1` (mixture of isomers) [Example 251, (4±)-4-methyl-2-[(5-methyl-2-pyridyl)methyl]-N-[[(2S)-tetrahydrofuran-2-yl]methyl]-8-(trifluoromethyl)-4,5-dihydrofuro[2,3-g]indazole-7-carboxamide], 9 nM; with `Cc1ccc(Cn2cc3c(n2)-c2c(oc(C(=O)NC[C@@H]4COCCO4)c2C(F)(F)F)CC3C)cn1` (mixture of isomers) [Example 252, (4±)-N-{I(2R)-1,4-dioxan-2-yl]methyl)-4-methyl-2-[(6-methylpyridin-3-yl)methyl]-8-(trifluoromethyl)-4,5-dihydro-2H-furo[2,3-g]indazole-7-carboxamide], 9 nM.

Regarding `Cc1ccc(Cn2cc3c(n2)-c2c(oc(C(=O)NC[C@@H]4CCCO4)c2C(F)(F)F)CC3C)cn1` (mixture of isomers) [Example 253, (4±)-4-methyl-2-[(6-methylpyridin-3-yl)methyl]-N-{[(2S)-oxolan-2-yl]methyl}-8-(trifluoromethyl)-4,5-dihydro-2H-furo[2,3-g]indazole-7-carboxamide], the half-inhibitory concentration (IC50) came out at 5 nM. In the case of `CC1Cc2oc(C(=O)NC[C@@H]3COCCO3)c(C(F)(F)F)c2-c2nn(C[C@H]3COCCO3)cc21` (mixture of isomers) [Example 254, (4±)-N-{[(2R)-1,4-dioxan-2-yl]methyl}-2-{[(2S)-1,4-dioxan-2-yl]methyl}-4-methyl-8-(trifluoromethyl)-4,5-dihydro-2H-furo[2,3-g]indazole-7-carboxamide], the half-inhibitory concentration (IC50) was 6 nM. Turning to `CC1Cc2oc(C(=O)NC[C@@H]3CCCO3)c(C(F)(F)F)c2-c2nn(C[C@H]3COCCO3)cc21` (mixture of isomers) [Example 255, (4±)-2-{[(2S)-1,4-dioxan-2-yl]methyl}-4-methyl-N-{[(2S)-oxolan-2-yl]methyl}-8-(trifluoromethyl)-4,5-dihydro-2H-furo[2,3-g]indazole-7-carboxamide], the IC50 stood at 5 nM.
